Experimental data published in PubChem BioAssay (NCI).
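Method: 48-hour compound exposure of cells in 96-well plates, five concentrations, linear interpolation of endpoints. GI50 = concentration required for 50% inhibition of growth. At the TGI there is no net growth.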

Tests used:
Assay in all cases: DTP human tumour cell line panel, 48 h
SK-OV-3 ovarian = tested on: SK-OV-3 ovarian
A498 renal = tested on: A498 renal
LOX IMVI melanoma = tested on: LOX IMVI melanoma
SF-268 CNS = tested on: SF-268 CNS
786-0 renal = tested on: 786-0 renal
NCI-H522 lung = tested on: NCI-H522 lung
MCF7 breast = tested on: MCF7 breast
SF-539 CNS = tested on: SF-539 CNS
BT-549 breast = tested on: BT-549 breast
HCC-2998 colon = tested on: HCC-2998 colon
HT29 colon = tested on: HT29 colon
UO-31 renal = tested on: UO-31 renal
SW-620 colon = tested on: SW-620 colon
COLO 205 colon = tested on: COLO 205 colon
DU-145 prostate = tested on: DU-145 prostate
OVCAR-8 ovarian = tested on: OVCAR-8 ovarian
TK-10 renal = tested on: TK-10 renal
HS 578T breast = tested on: HS 578T breast
SK-MEL-2 melanoma = tested on: SK-MEL-2 melanoma
U251 CNS = tested on: U251 CNS
K-562 leukemia = tested on: K-562 leukemia
RPMI-8226 leukemia = tested on: RPMI-8226 leukemia
CCRF-CEM leukemia = tested on: CCRF-CEM leukemia
M14 melanoma = tested on: M14 melanoma
EKVX NSCLC = tested on: EKVX NSCLC
UACC-257 melanoma = tested on: UACC-257 melanoma
HOP-62 NSCLC = tested on: HOP-62 NSCLC
RXF 393 renal = tested on: RXF 393 renal
SN12C renal = tested on: SN12C renal
KM12 colon = tested on: KM12 colon
SK-MEL-5 melanoma = tested on: SK-MEL-5 melanoma
NCI-H226 lung = tested on: NCI-H226 lung
T-47D breast = tested on: T-47D breast
HL-60(TB) leukemia = tested on: HL-60(TB) leukemia
OVCAR-4 ovarian = tested on: OVCAR-4 ovarian
SF-295 CNS = tested on: SF-295 CNS
SNB-75 CNS = tested on: SNB-75 CNS
ACHN renal = tested on: ACHN renal
NCI-H460 lung = tested on: NCI-H460 lung
SNB-19 CNS = tested on: SNB-19 CNS
OVCAR-5 ovarian = tested on: OVCAR-5 ovarian
HCT-116 colon = tested on: HCT-116 colon
CAKI-1 renal = tested on: CAKI-1 renal
MDA-MB-435 = tested on: MDA-MB-435
HCT-15 colon = tested on: HCT-15 colon
UACC-62 melanoma = tested on: UACC-62 melanoma
SK-MEL-28 melanoma = tested on: SK-MEL-28 melanoma
HOP-92 NSCLC = tested on: HOP-92 NSCLC
A549 NSCLC = tested on: A549 NSCLC
MALME-3M melanoma = tested on: MALME-3M melanoma
IGROV1 ovarian = tested on: IGROV1 ovarian
PC-3 prostate = tested on: PC-3 prostate
SR leukemia = tested on: SR leukemia
MDA-MB-231 breast = tested on: MDA-MB-231 breast

With COc1ccc2c(c1)Oc1nc(N)c(C#N)c(N)c1C2Sc1ccc(C)cc1 (stereo not drawn) the GI50 (SK-OV-3 ovarian) was 1.9 µM, the TGI (SK-OV-3 ovarian) was 3.39 µM and the GI50 (A498 renal) was 1.48 µM. It also gave a TGI (A498 renal) of 2.8 µM, a GI50 (LOX IMVI melanoma) of 1.41 µM and a TGI (LOX IMVI melanoma) of 2.84 µM. The GI50 (SF-268 CNS) was 1.59 µM, the TGI (SF-268 CNS) was 3.04 µM and the GI50 (786-0 renal) was 1.7 µM. It also gave a TGI (786-0 renal) of 3.13 µM, a GI50 (NCI-H522 lung) of 1.53 µM and a TGI (NCI-H522 lung) of 2.87 µM. It also gave a GI50 (MCF7 breast) of 1.26 µM, a TGI (MCF7 breast) of 2.9 µM and a GI50 (SF-539 CNS) of 1.61 µM. The TGI (SF-539 CNS) was 2.98 µM, the GI50 (BT-549 breast) was 1.29 µM and the TGI (BT-549 breast) was 2.58 µM. For the same molecule, the GI50 (HCC-2998 colon) was 1.75 µM, the TGI (HCC-2998 colon) was 3.26 µM and the GI50 (HT29 colon) was 1.8 µM. It also gave a TGI (HT29 colon) of 3.3 µM, a GI50 (UO-31 renal) of 1.18 µM and a TGI (UO-31 renal) of 2.42 µM. It also gave a GI50 (SW-620 colon) of 1.77 µM, a TGI (SW-620 colon) of 3.38 µM and a GI50 (COLO 205 colon) of 1.9 µM. It also gave a TGI (COLO 205 colon) of 3.6 µM, a GI50 (DU-145 prostate) of 1.87 µM and a TGI (DU-145 prostate) of 3.34 µM. The GI50 (OVCAR-8 ovarian) was 1.73 µM, the TGI (OVCAR-8 ovarian) was 3.14 µM and the GI50 (TK-10 renal) was 1.83 µM. For the same molecule, the TGI (TK-10 renal) was 3.22 µM, the GI50 (HS 578T breast) was 2.41 µM and the TGI (HS 578T breast) was 5.83 µM. It also gave a GI50 (SK-MEL-2 melanoma) of 1.59 µM, a TGI (SK-MEL-2 melanoma) of 2.94 µM and a GI50 (U251 CNS) of 1.55 µM. For the same molecule, the TGI (U251 CNS) was 2.96 µM, the GI50 (K-562 leukemia) was 0.584 µM and the TGI (K-562 leukemia) was over 100 µM. For the same molecule, the GI50 (RPMI-8226 leukemia) was 2.61 µM, the TGI (RPMI-8226 leukemia) was 7.27 µM and the GI50 (CCRF-CEM leukemia) was 0.421 µM. The TGI (CCRF-CEM leukemia) was over 100 µM, the GI50 (M14 melanoma) was 1.85 µM and the TGI (M14 melanoma) was 3.36 µM. For the same molecule, the GI50 (EKVX NSCLC) was 1.72 µM, the TGI (EKVX NSCLC) was 3.28 µM and the GI50 (UACC-257 melanoma) was 1.71 µM. It also gave a TGI (UACC-257 melanoma) of 3.11 µM, a GI50 (HOP-62 NSCLC) of 1.82 µM and a TGI (HOP-62 NSCLC) of 3.31 µM. It also gave a GI50 (RXF 393 renal) of 1.48 µM, a TGI (RXF 393 renal) of 2.81 µM and a GI50 (SN12C renal) of 1.59 µM. It also gave a TGI (SN12C renal) of 2.94 µM, a GI50 (KM12 colon) of 1.74 µM and a TGI (KM12 colon) of 3.15 µM. The GI50 (SK-MEL-5 melanoma) was 1.79 µM, the TGI (SK-MEL-5 melanoma) was 3.19 µM and the GI50 (NCI-H226 lung) was 1.97 µM. The TGI (NCI-H226 lung) was 4.59 µM, the GI50 (T-47D breast) was 1.22 µM and the TGI (T-47D breast) was 3.91 µM. The GI50 (HL-60(TB) leukemia) was 1.72 µM, the TGI (HL-60(TB) leukemia) was 5.26 µM and the GI50 (OVCAR-4 ovarian) was 1.73 µM. It also gave a TGI (OVCAR-4 ovarian) of 3.13 µM, a GI50 (SF-295 CNS) of 1.69 µM and a TGI (SF-295 CNS) of 3.08 µM. It also gave a GI50 (SNB-75 CNS) of 1.4 µM, a TGI (SNB-75 CNS) of 2.7 µM and a GI50 (ACHN renal) of 1.66 µM. The TGI (ACHN renal) was 3.02 µM, the GI50 (NCI-H460 lung) was 1.98 µM and the TGI (NCI-H460 lung) was 3.9 µM. The GI50 (SNB-19 CNS) was 1.72 µM, the TGI (SNB-19 CNS) was 3.12 µM and the GI50 (OVCAR-5 ovarian) was 1.78 µM. For the same molecule, the TGI (OVCAR-5 ovarian) was 3.24 µM, the GI50 (HCT-116 colon) was 1.75 µM and the TGI (HCT-116 colon) was 3.31 µM. For the same molecule, the GI50 (CAKI-1 renal) was 1.34 µM, the TGI (CAKI-1 renal) was 2.63 µM and the GI50 (MDA-MB-435) was 1.67 µM. For the same molecule, the TGI (MDA-MB-435) was 3.09 µM, the GI50 (HCT-15 colon) was 1.33 µM and the TGI (HCT-15 colon) was 2.83 µM. The GI50 (UACC-62 melanoma) was 1.66 µM, the TGI (UACC-62 melanoma) was 3.08 µM and the GI50 (SK-MEL-28 melanoma) was 1.73 µM. For the same molecule, the TGI (SK-MEL-28 melanoma) was 3.12 µM, the GI50 (HOP-92 NSCLC) was 1.64 µM and the TGI (HOP-92 NSCLC) was 3.01 µM. It also gave a GI50 (A549 NSCLC) of 1.77 µM, a TGI (A549 NSCLC) of 3.33 µM and a GI50 (MALME-3M melanoma) of 1.67 µM. For the same molecule, the TGI (MALME-3M melanoma) was 3.12 µM, the GI50 (IGROV1 ovarian) was 1.2 µM and the TGI (IGROV1 ovarian) was 2.49 µM. It also gave a GI50 (PC-3 prostate) of 1.62 µM, a TGI (PC-3 prostate) of 3.04 µM and a GI50 (SR leukemia) of 0.313 µM. For the same molecule, the TGI (SR leukemia) was over 100 µM, the GI50 (MDA-MB-231 breast) was 1.71 µM and the TGI (MDA-MB-231 breast) was 3.13 µM.
